According to patent US12643867B2, “Compositions and uses thereof” (University of Virginia Patent Foundation, priority 2017, dated 2026):

Molecular target: T1, DGKQ (Diacylglycerol kinase theta) (Homo sapiens, UniProt P52824)
T1 construct: expressed in transfected cells; host or cells: SILAC HEK293T
T1 sequence (P52824 1-942): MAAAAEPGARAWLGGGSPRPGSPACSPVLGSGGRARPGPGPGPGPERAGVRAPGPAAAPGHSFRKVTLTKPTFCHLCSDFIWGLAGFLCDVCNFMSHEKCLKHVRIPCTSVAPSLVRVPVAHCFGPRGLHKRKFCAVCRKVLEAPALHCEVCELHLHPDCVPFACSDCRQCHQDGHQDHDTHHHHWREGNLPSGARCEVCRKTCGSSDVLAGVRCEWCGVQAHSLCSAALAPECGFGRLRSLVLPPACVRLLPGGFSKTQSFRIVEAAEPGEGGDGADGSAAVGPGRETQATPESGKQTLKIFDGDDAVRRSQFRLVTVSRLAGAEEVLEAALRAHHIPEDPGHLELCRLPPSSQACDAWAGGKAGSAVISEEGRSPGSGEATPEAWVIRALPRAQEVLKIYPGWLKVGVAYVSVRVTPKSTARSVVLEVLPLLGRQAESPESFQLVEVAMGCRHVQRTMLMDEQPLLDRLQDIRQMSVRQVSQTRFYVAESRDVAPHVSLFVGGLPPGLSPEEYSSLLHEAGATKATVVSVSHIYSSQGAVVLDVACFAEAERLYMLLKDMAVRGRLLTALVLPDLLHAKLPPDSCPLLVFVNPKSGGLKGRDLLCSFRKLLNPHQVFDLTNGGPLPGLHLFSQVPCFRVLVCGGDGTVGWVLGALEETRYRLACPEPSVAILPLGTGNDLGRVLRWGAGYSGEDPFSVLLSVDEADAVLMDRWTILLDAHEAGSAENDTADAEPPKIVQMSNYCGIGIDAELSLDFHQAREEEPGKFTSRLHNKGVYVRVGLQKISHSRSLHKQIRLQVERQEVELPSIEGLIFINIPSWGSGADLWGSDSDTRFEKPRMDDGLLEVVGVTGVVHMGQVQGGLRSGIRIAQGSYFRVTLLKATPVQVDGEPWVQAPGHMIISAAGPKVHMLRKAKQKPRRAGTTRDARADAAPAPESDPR
Assay: SILAC LC-MS ATP acyl phosphate probe competition, recombinant DGK-HEK293T lysates
Type: binding
Details: ATP 1 mM, Ketanserin, Ritanserin 100 μM, RF001 1 mM; for SILAC ratio, DGKQ C1 probe-modified peptide: site C1 (K202); for SILAC ratio, DGKQ DAGKa probe-modified peptide: site DAGKa (K768); for SILAC ratio, DGKQ DAGKc probe-modified peptide: site DAGKc (K596)
Text: Recombinant DGK proteins were produced by transient transfection of HEK293T cells with recombinant DNA. pDONR223-DGKK was a gift from William Hahn & David Root (Addgene plasmid #23487). pCSF107mT-GATEWAY-3′-FLAG was a gift from Todd Stukenberg (Addgene plasmid #67619). pCSF107mT-DGKK-FLAG construct was generated by recombination of the Addgene plasmids using the Gateway cloning system (Invitrogen). All other vectors were gifted to Dr. Kevin Lynch (University of Virginia, School of Medicine) by Dr. Kaoru Goto (Yamagata University, School of Medicine) and Dr. Fumio Sakane (Chiba University) and were kindly shared with us: pcDNA3-FLAG-DGKA (rat), pCMV-Tag2B-FLAG-DGKQ (human), pcDNA3-DGKE-3×Flag (human), and pCMV-SPORT6-HA-DGKZ (human). HEK293T cells were plated at a concentration of 400,000 cells in complete DMEM and grown to 50-60% confluency. A polyethyleneimine (PEI) stock solution was prepared (1 mg/mL, pH 7.4) and filter sterilized. Serum-free DMEM (600 μL) was mixed gently with 2.6 μg DNA and 20 μL of sterile PEI (1 mg/mL, pH 7.4) in a sterile microfuge tube. Mixtures were incubated for 30 min at 25° C. The mixture was then added drop-wise to each 10 cm^2 plate, rocked back and forth to mix, and placed back in the incubator. Cell pellets were harvested after two full days of growth, snap-frozen in liquid N2, and stored at −80° C. until use. Recombinant proteins were produced by transient transfection in SILAC HEK293T cells using the procedure described above, except that cells were plated at a concentration of 1×10^6 cells per 10 cm^2 plate and grown to ˜70% confluency prior to introducing transfection mixture.
Proteomes were diluted to 2 mg/ml in kinase buffer. The light and heavy proteomes (0.5 mg, 250 μL total reaction volume) were pre-treated with vehicle or compound, respectively (5 μL, DMSO (light) or 50× stock in DMSO (heavy)), mixed gently, and incubated at 25° C. for 30 min. […] After incubation, matched light and heavy proteomes were transferred and mixed in a 1:1 ratio in a two-dram vial containing 4:1:3 MeOH/CHCl3/H2O (2 mL MeOH, 500 AL CHCl3, 1.5 mL H2O) for extraction of proteins to remove excess probe, quickly vortexed, and centrifuged at 1,400×g for 3 min to pellet protein. Organic and aqueous layers were removed using a Pasteur pipette, and the protein pellet was transferred to a screw-top tube in 600 μL MeOH. A second extraction was performed by adding CHCl3 (150 μL) and H2O (600 μL) to each sample, vortexed, and centrifuged at 1,400×g for 3 min to pellet protein. Organic and aqueous layers were removed by pipetting. MeOH added to pellet (600 μL) and pellets were re-suspended by sonication (3×1 sec pulse, 20% amplitude) for a final extraction. Samples were then centrifuged at 17,000×g for 5 min to pellet protein and MeOH was removed by pipetting. The pellets were re-suspended in 10 M urea/25 mM ammonium bicarbonate ([…]), brought to a final volume of 1 mL with 25 mM ammonium bicarbonate, reduced with 10 mM DTT for 15 min at 65° C. allowed to cool, and then alkylated with 40 mM iodoacetamide for 30 min at 25° C. in the dark. To desalt the samples, each was transferred to a two-dram glass vial, and to the vial 4:1:2 MeOH/CHCl3/H2O (2 mL MeOH, 500 AL CHCl3, 1 mL H2O) was added. The vials were vortexed quickly, spun at 1.400×g for 3 min to pellet protein, and aqueous and organic layers were removed using a Pasteur pipette. The resulting protein pellet was transferred to a screw-top tube in 600 μL MeOH, and then CHCl3 (150 μL) and HO (600 μL) were added to extract protein a second time. The samples were vortexed quickly, centrifuged at 1,400×g to pellet protein, and the aqueous and organic layers were removed by pipetting. Resulting protein pellet was suspended in MeOH (600 μL) via sonication (3×1 sec pulse, 20% amplitude), centrifuged at 17,000×g for 5 min to pellet protein, and MeOH removed by pipetting. […]

Compound: O=C(c1ccc(F)cc1)C1CCN(CCn2c(=O)[nH]c3ccccc3c2=O)CC1 [Ketanserin]
- SILAC ratio, DGKQ C1 probe-modified peptide: 0.9
- SILAC ratio, DGKQ DAGKa probe-modified peptide: 1.1
- SILAC ratio, DGKQ DAGKc probe-modified peptide: 1.2

Compound: Fc1ccc(C(=C2CCNCC2)c2ccc(F)cc2)cc1 [RF001, 4-(Bis(4-fluorophenyl)methylene) piperidine]
- SILAC ratio, DGKQ C1 probe-modified peptide: 0.7
- SILAC ratio, DGKQ DAGKa probe-modified peptide: 1.2
- SILAC ratio, DGKQ DAGKc probe-modified peptide: 0.9

Compound: Cc1nc2sccn2c(=O)c1CCN1CCC(=C(c2ccc(F)cc2)c2ccc(F)cc2)CC1 [Ritanserin]
- SILAC ratio, DGKQ C1 probe-modified peptide: 1.3
- SILAC ratio, DGKQ DAGKa probe-modified peptide: 1.4
- SILAC ratio, DGKQ DAGKc probe-modified peptide: 1.1
